Test results reported in US7888050B2, “Method for quantifying phosphokinase activity on proteins” (Life Technologies Corporation, priority 2000, dated 2011).

Target: T1, human EGFR (Homo sapiens, UniProt P00533)
T1 construct: purchased Sigma E-2645; host or cells: A431 human carcinoma cells (natural source)
Assay: EGFR autophosphorylation, EGFR [pY845] PSSA ELISA
Assay type: biochemical
Details: purified human EGFR, 1 uM ATP, 30 minutes at 30° C.; FIG. 16
From the text: EGFR System: This model system presents an analysis of the cell surface receptor Epidermal Growth Factor Receptor (EGFR). This protein is a large transmembrane signaling protein with multiple phosphorylation sites consisting of phospho-threonine, phospho-serine and phospho-tyrosine residues. EGFR protein: Human EGFR protein was purified from human carcinoma A431 cells by affinity purification. The product is purchased from Sigma (St. Louis, Mo.; cat #E-2645). EGFR [pY^11731 PSSA: Rabbit antiserum was produced against a chemically synthesized phosphopeptide derived from the region of EGFR that contains tyrosine 1173. The sequence is conserved in human, mouse, and rat. Antibody was purified from serum by sequential epitope-specific chromatography. […] The final product is generated by affinity chromatography using an EGFR derived peptide that is phosphorylated at tyrosine 1173. […] EGFR [Py^8451 PSSA: Prepared essentially as EGFR [pY^1173] PSSA but using chemically synthesized phosphopeptides from the region that contains tyrosine 845. EGFR [Pan] monoclonal antibody: The capture antibody is a mouse monoclonal antibody, clone 199.12, available commercially from Neomarkers, Inc. (Union City, Calif.). […] This antibody will bind to both non-phosphorylated and phosphorylated forms of EGFR protein and therefore is used as an initial capture antibody in the EGFR ELISA. EGFR [Pan] […]

T1 sequence (P00533 25-1210): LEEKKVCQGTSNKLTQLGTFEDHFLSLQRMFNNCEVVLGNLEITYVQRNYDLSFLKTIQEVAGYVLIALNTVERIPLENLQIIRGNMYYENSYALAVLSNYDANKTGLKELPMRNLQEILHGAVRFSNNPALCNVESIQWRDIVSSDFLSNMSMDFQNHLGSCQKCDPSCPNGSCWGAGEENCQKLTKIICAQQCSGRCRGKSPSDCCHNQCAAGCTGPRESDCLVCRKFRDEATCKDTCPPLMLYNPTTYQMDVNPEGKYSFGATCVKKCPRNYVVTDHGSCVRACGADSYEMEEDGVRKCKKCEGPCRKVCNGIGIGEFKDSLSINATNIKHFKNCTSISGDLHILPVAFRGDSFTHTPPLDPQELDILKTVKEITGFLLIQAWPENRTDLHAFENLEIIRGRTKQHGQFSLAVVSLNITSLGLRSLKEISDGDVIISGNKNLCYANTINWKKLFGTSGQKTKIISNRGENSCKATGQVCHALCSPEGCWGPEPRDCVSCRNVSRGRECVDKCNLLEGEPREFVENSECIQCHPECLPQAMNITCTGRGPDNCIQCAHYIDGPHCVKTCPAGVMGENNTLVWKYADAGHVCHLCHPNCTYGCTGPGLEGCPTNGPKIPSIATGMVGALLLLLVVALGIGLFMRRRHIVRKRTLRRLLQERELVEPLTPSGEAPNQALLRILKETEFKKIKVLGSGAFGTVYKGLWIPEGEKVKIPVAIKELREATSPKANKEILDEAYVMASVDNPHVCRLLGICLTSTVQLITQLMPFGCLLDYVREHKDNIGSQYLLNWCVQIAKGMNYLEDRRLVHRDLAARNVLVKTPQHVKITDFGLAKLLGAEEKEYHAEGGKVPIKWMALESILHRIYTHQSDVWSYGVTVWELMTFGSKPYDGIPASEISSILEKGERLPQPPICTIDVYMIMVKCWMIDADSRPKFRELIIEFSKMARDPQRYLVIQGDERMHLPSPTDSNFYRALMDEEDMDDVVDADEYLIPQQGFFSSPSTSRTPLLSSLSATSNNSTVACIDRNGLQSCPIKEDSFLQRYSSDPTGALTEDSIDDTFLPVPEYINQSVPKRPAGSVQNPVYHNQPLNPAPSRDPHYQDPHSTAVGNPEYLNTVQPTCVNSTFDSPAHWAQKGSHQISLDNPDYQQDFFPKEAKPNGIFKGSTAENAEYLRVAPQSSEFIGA

With `CNc1cc2c(Nc3cccc(Br)c3)ncnc2cn1` [PD158780] as the molecule, how does the “EGFR [pY845] phosphorylation (autophosphorylation)” value read?
Its value is “inhibition of that activity”.
